Test results as given in paper PMC7076694, “The Qi Site of Cytochrome b is a Promiscuous Drug Target in Trypanosoma cruzi and Leishmania donovani” (ACS Infectious Diseases, 2020).
Like-named read-outs stand apart in the source and are kept apart here.

Columns and labels:
[1] = tested on: T. cruzi intracellular amastigotes; design: method as in PMID 25740547; details: high-throughput screening hit ref 13; read-out: EC50 against T. cruzi intracellular amastigotes; cited from earlier work
[2] = tested on: T. cruzi epimastigotes; test: microbe, parasite or virus in culture; assay type: cell-based; details: Trypanosoma cruzi
[3] = tested on: T. cruzi Intra-Vero Cells (intracellular amastigotes); test: T. cruzi intracellular amastigote (Intra-Vero) drug sensitivity; assay type: cell-based; details: Trypanosoma cruzi; intracellular amastigotes in Vero cells
Experimental: (§1) T. cruzi and L. donovani intracellular amastigote drug sensitivity assays were conducted as previously described.[42],[43]

[4] = tested on: L. donovani promastigotes; test: microbe, parasite or virus in culture; assay type: cell-based, Leishmania donovani; details: for EC50: Leishmania donovani
[5] = tested on: L. donovani Intramacrophage Amastigotes; test: L. donovani intramacrophage amastigote drug sensitivity; assay type: cell-based; details: Leishmania donovani, read-out: EC50 values, L. donovani Intra-MAC
Experimental: as §1

[6] = tested on: T. brucei Bloodstream Forms; test: T. brucei bloodstream form drug sensitivity; assay type: cell-based, Trypanosoma brucei; details: read-out: EC50 values, T. brucei BSF
Experimental: EC50 values for test compounds were determined as previously described.[40]

[7] = tested on: T. brucei Procyclics; test: T. brucei procyclic drug sensitivity (resazurin); assay type: cell-based, Trypanosoma brucei; details: read-out: EC50 values, T. brucei Pro
Experimental: To examine the effects of test compounds on growth, mid log procyclics were seeded into 96-well plates at a cell density of 5 × 10^5 cells mL^–1. Cells were exposed to test compounds over a range of concentrations (2-fold serial dilutions). Following 72 h of incubation in the presence of drug, 500 μM resazurin was added to each well and fluorescence measured after a further 2 h incubation.

[8] = tested on: HepG2 Cells; test: HepG2 cell potency; assay type: cell-based; details: Homo sapiens
Experimental: Table 1 Compound Efficacy: Potencies of Compounds Were Determined against L. donovani Promastigotes (Pro), L. donovani Intramacrophage Amastigotes (Intra-MAC), T. cruzi Epimastigotes (Epi), T. cruzi Intra-Vero Cells (Intra-Vero), T. brucei Bloodstream Forms (BSF), T. brucei Procyclics (Pro), and HepG2 Cells ^a | column: HepG2

[9] = biological target: complex III (cytochrome bc1 complex) (Leishmania donovani, UniProt A5HU08); test: biochemical; assay type: biochemical
[10] = biological target: T1, complex III (cytochrome bc1 complex) (Leishmania donovani, UniProt A5HU08, F187I); test: biochemical; assay type: biochemical
T1 sequence (A5HU08 1-290 F187I): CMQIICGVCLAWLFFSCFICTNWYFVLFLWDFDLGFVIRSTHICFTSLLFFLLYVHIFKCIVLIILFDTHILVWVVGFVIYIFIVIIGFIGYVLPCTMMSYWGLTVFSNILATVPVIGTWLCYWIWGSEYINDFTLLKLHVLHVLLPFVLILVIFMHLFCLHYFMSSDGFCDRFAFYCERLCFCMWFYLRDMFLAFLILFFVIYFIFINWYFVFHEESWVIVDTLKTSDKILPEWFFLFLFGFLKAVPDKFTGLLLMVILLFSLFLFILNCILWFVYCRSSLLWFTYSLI
T1 sequence (A0A3S7WPP0 1-258 partner): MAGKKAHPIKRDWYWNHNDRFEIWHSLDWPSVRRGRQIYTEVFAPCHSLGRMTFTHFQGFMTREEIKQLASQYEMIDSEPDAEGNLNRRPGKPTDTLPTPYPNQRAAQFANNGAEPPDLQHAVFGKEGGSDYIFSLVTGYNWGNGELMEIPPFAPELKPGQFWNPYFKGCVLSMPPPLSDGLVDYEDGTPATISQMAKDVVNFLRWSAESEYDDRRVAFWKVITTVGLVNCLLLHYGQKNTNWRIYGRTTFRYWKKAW

[11] = biological target: complex III (cytochrome bc1 complex) (Trypanosoma cruzi, UniProt Q9T479); test: Complex III (cytochrome c reduction) assay, T. cruzi lysate; assay type: biochemical; details: mitochondria-enriched lysate of epimastigotes
[12] = tested on: T. cruzi epimastigotes; test: T. cruzi epimastigote respiration (O2 consumption, MitoXpress-Xtra); assay type: cell-based; details: Trypanosoma cruzi, read-out: O2 consumption, IC50 values, T. cruzi
Experimental: Compounds were predispensed (150 nL well^–1) into 384-well assay plates using an Echo liquid handler (Labcyte Inc.). […] The negative control for this assay was 0.2% DMSO, equivalent to the final concentration of solvent used in drug dilutions.
Our O2 consumption assay was an adaptation of the assay described by Khare and colleagues.[14] Briefly, assay buffer (250 mM sucrose, 15 mM KCl, 5 mM MgCl2, 1 mM EGTA, 30 mM K2HPO4, pH 7.4; 25 μL) was added to 384-well assay plates and incubated at 37 °C for 10 min. Mid log T. cruzi epimastigotes were harvested (1600g for 10 min at 4 °C), washed three times with buffer A (10 mM Tris-HCl, pH 7.4, 230 mM mannitol, 70 mM sucrose, 0.2 mM EDTA, 0.2% bovine serum albumin, 0.5 mM PMSF), and finally resuspended at 1.5 × 10^8 epimastigotes mL^–1. Following resuspension, 3 × 10^6 epimastigotes (20 μL) were dispensed into each well followed by MitoXpress-Xtra probe (15 μL, Agilent) resulting in a final assay volume of 60 μL. Plates were gently shaken, and 30 μL of HS mineral oil (Agilent) was then added to each well to prevent oxygen exchange between the assay buffer and air. Plates were incubated for 90 min at 37 °C, and fluorescence was then measured using an EnVision MultiMode plate reader (PerkinElmer) using excitation and emission wavelengths of 380 and 650 nm, respectively.
Data were normalized to percent of biological response by using positive (i.e., highest response achieved using a chemical tool compound, RactinomycinA) or negative (i.e., lowest response achieved in the absence of any testing compound, RDMSO) controls by using the following equation: [drawing 3] where Rx is the assay response measured in the presence of test compounds.

[13] = tested on: L. donovani intracellular amastigotes within macrophages; test: microbe, parasite or virus in culture; assay type: cell-based; details: Leishmania donovani
[14] = biological target: T2, complex III (cytochrome bc1 complex) (Leishmania donovani, UniProt A5HU08); test: biochemical; assay type: biochemical; details: read-out: complex III IC50 values, Compound 1 RES1 lysate; lysate of L. donovani Compound 1 RES1 cell line
T2 sequence (A5HU08 1-290): T1 sequence (A5HU08 1-290 F187I)
T2 sequence (A0A3S7WPP0 1-258 partner): T1 sequence (A0A3S7WPP0 1-258 partner)

[15] = tested on: T. cruzi Intra-Vero Cells (intracellular amastigotes); design: method as in PMID 26186534; details: reported previously ref 14; cited from earlier work
[16] = tested on: T. cruzi epimastigotes; design: method as in PMID 26186534; details: reported previously ref 14; read-out: O2 consumption, IC50 values, T. cruzi; cited from earlier work
[17] = wild-type epimastigotes, read-out: EC50 values, T. cruzi Epi
[18] = wild-type promastigotes, read-out: EC50 values, L. donovani Pro
[19] = Trypanosoma brucei, bloodstream form
[20] = HepG2 cells, read-out: EC50 values, HepG2
[21] = epimastigotes (3 × 10^6), MitoXpress-Xtra probe
[22] = Macrophage, read-out: Leishmania EC50, Compound 1 RES1
[23] = Macrophage, read-out: Leishmania EC50, Compound 2 RES1
[24] = intra-macrophage, WT parasites, read-out: Leishmania EC50, WT

| Compound | EC50 [2, 17] | EC50 [3] | EC50 [4, 18] | EC50 [5] | EC50 [6, 19] | EC50 ([7]; Trypanosoma brucei, procyclics) | EC50 [8, 20] | IC50 [9] | IC50 [11] | IC50 [12, 21] | EC50 [13, 22] | EC50 [13, 23] | EC50 [13, 24] | other results |
| --- | --- | --- | --- | --- | --- | --- | --- | --- | --- | --- | --- | --- | --- | --- |
| Cc1nc2nc(C)c(Cc3ccc(C(C)C)cc3)c(=O)n2[nH]1 [TCMDC-143087] | – | – | – | – | – | – | – | – | – | – | – | – | – | EC50 [1]: 250 nM |
| Cc1cc(C)c2c(N)c(C(=O)N3CCC(C)(C)c4ccccc43)sc2n1 [compound 2] | 71 ± 2 nM | 30 ± 10 nM | 24 ± 2 nM | 1100 ± 600 nM | 8000 ± 970 nM | 140 ± 14 nM | > 50000 nM | 99 ± 13 nM | 100 ± 24 nM | 510 ± 119 nM | 30 nM | 4400 nM | 400 nM | IC50 [10]: 4200 ± 500 nM |
| Cc1nn2c(=O)c(Cc3ccc(Cl)cc3)c(C)[nH]c2c1C [compound 1] | 210 ± 7 nM | 20 ± 3 nM | 19 ± 1 nM | 1500 ± 400 nM | 6600 ± 470 nM | 97 ± 3 nM | > 50000 nM | 44 ± 7 nM | 72 ± 16 nM | 150 ± 36 nM | 1300 nM | 20 nM | 100 nM | EC50 ([2]; WT epimastigotes, resistance study, read-out: EC50 against WT T. cruzi (Figure 2)): 120 ± 6 nM; EC50 ([2]; compound 1-resistant epimastigote clone RES I, read-out: EC50 against T. cruzi RES I): 1400 ± 78 nM; EC50 ([2]; compound 1-resistant epimastigote clone RES II, read-out: EC50 against T. cruzi RES II): 2500 ± 62 nM; EC50 ([2]; compound 1-resistant epimastigote clone RES III, read-out: EC50 against T. cruzi RES III): 3800 ± 160 nM; EC50 ([4]; WT promastigotes, resistance study, read-out: EC50 against WT L. donovani (Figure 2)): 21.5 ± 0.5 nM; EC50 ([4]; compound 1-resistant promastigote clone RES I, read-out: EC50 against L. donovani RES I): 1300 ± 14 nM; EC50 ([4]; compound 1-resistant promastigote clone RES II, read-out: EC50 against L. donovani RES II): 1300 ± 96 nM; EC50 ([4]; compound 1-resistant promastigote clone RES III, read-out: EC50 against L. donovani RES III): 790 ± 27 nM; EC50 ([6]; bloodstream form, listed as DDD01542111 (compound 1)): 6700 ± 470 nM; IC50 [14]: 220 ± 51 nM |
| CCc1c(C)c(C#N)c2nc3ccccc3n2c1O [GNF7686, reference compound] | 710 ± 17 nM | – | 570 ± 51 nM | > 50000 nM | > 50000 nM | 521 nM | > 50000 nM | 1600 ± 300 nM | 550 ± 97 nM | – | – | – | – | relative sensitivity of L. donovani promastigotes bearing cytochrome b C222F mutation ([4]; compound 1-selected clone, relative to wild-type): markedly cross-resistant; relative sensitivity of L. donovani promastigotes bearing cytochrome b G37A mutation ([4]; compound 1-selected clones, relative to wild-type): remaining sensitive; EC50 ([7]; procyclics): 520 ± 13 nM; EC50 [15]: 150 ± 30 nM; IC50 [16]: 210 nM |
| CCCCCC[C@H]1C(=O)O[C@H](C)[C@H](NC(=O)c2cccc(NC=O)c2O)C(=O)O[C@@H](C)[C@@H]1OC(=O)CC(C)C [antimycin A, reference compound] | 28 ± 1 nM | – | 2 ± 0.1 nM | – | – | – | – | – | – | – | – | – | – | EC50 ([6]; Trypanosoma brucei): > 50000 nM; EC50 ([7]; Trypanosoma brucei): 18 ± 0.5 nM; EC50 ([8]; HepG2, read-out: EC50 values, HepG2): < 1000 nM; IC50 [12]: 200 ± 36 nM |
| CC(=O)Nc1ccc2[nH]c(=O)n([C@H]3CC[C@H](C(C)C)CC3)c(=O)c2c1 [compound 3] | 320 ± 12 nM | 150 ± 46 nM | 1640 ± 54 nM | > 50000 nM | 8700 ± 470 nM | 88 ± 2 nM | 7300 ± 60 nM | > 13000 nM | 86 ± 39 nM | 190 ± 38 nM | – | – | – | – |
